The source of these data is PubChem BioAssay AID272 (DTP/NCI, 2004).

The structures appear in SMILES notation. “And” between values parts separate entries of the source, which are not always exact repeats. Identical values can stand only once. Results filed as inconclusive are left out.

In this experiment the test system is Lewis lung carcinoma i.m., BDF1 mice, T/C %. Put plainly: NCI In Vivo Anticancer Drug Screen. Data for tumor model Lewis Lung Carcinoma (intramuscular) in B6D2F1 (BDF1) mice. In short, it runs like this: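 Value is the ratio of a treated-group measurement (T) to the matching vehicle-control measurement (C), using either survival or tumour size in mice bearing transplanted tumours.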

Where [1] appears, read: endpoint: median survival time, dose: 25.0 mg/kg/injection, schedule: Q01DX011 (ip), vehicle: saline, higher = longer survival.
The mark [2] stands for this setting: endpoint: median survival time, dose: 100.0 mg/kg/injection, schedule: Q01DX011 (ip), vehicle: saline, higher = longer survival.
[3] abbreviates: endpoint: mean tumor weight, dose: 0.5 mg/kg/injection, schedule: Q01DX011 (ip), vehicle: saline, higher = larger tumour.
Setting [4] is: endpoint: median survival time, dose: 0.5 mg/kg/injection, schedule: Q01DX011 (ip), vehicle: saline, higher = longer survival.

For the compound `Clc1ccc2nc(CBr)cnc2c1`, the T/C was 64 % of control (endpoint: mean tumor weight (est.), dose: 6.25 mg/kg/injection, schedule: Q01DX011 (ip), vehicle: saline with Tween-80, higher = larger tumour); 77 % of control (endpoint: mean tumor weight (est.), dose: 12.5 mg/kg/injection, schedule: Q01DX011 (ip), vehicle: saline with Tween-80, higher = larger tumour); 81 % of control (endpoint: mean tumor weight (est.), dose: 25.0 mg/kg/injection, schedule: Q01DX011 (ip), vehicle: saline with Tween-80, higher = larger tumour); 105 % of control (endpoint: median survival time, dose: 6.25 mg/kg/injection, schedule: Q01DX011 (ip), vehicle: saline with Tween-80, higher = longer survival); 105 % of control (endpoint: median survival time, dose: 12.5 mg/kg/injection, schedule: Q01DX011 (ip), vehicle: saline with Tween-80, higher = longer survival); 103 % of control (endpoint: median survival time, dose: 25.0 mg/kg/injection, schedule: Q01DX011 (ip), vehicle: saline with Tween-80, higher = longer survival).

Regarding `OCC1OC(n2cnc3c(Cl)ncnc32)C(O)C1O` (centres undefined), the T/C runs as follows: (endpoint: mean tumor weight (est.), dose: 25.0 mg/kg/injection, schedule: Q01DX011 (ip), vehicle: saline, higher = larger tumour) 121 % of control; (endpoint: mean tumor weight (est.), dose: 50.0 mg/kg/injection, schedule: Q01DX011 (ip), vehicle: saline, higher = larger tumour) 91 % of control; (endpoint: mean tumor weight (est.), dose: 100.0 mg/kg/injection, schedule: Q01DX011 (ip), vehicle: saline, higher = larger tumour) 117 % of control; (endpoint: mean tumor weight (est.), dose: 400.0 mg/kg/injection, schedule: Q01DX011 (ip), vehicle: saline, higher = larger tumour) 94 % of control; (endpoint: mean tumor weight, dose: 25.0 mg/kg/injection, schedule: Q01DX011 (ip), vehicle: Klucel (hydroxypropylcellulose) (HPC), higher = larger tumour) 44 % of control; (endpoint: mean tumor weight, dose: 200.0 mg/kg/injection, schedule: Q01DX011 (ip), vehicle: Klucel (hydroxypropylcellulose) (HPC), higher = larger tumour) 88 % of control. The T/C is 100 % of control under setting [1]; 95 % of control (endpoint: median survival time, dose: 25.0 mg/kg/injection, schedule: Q01DX012 (ip), vehicle: Klucel (hydroxypropylcellulose) (HPC), higher = longer survival); 98 % of control under setting [2]; 104 % of control (endpoint: median survival time, dose: 200.0 mg/kg/injection, schedule: Q01DX012 (ip), vehicle: Klucel (hydroxypropylcellulose) (HPC), higher = longer survival); 92 % of control (endpoint: median survival time, dose: 400.0 mg/kg/injection, schedule: Q01DX011 (ip), vehicle: saline, higher = longer survival).

On to `CCCCN(CC)C(=S)S[Te](SC(=S)N(CC)CCCC)(SC(=S)N(CC)CCCC)SC(=S)N(CC)CCCC`, for which the T/C is 72 % of control (endpoint: mean tumor weight (est.), dose: 100.0 mg/kg/injection, schedule: Q01DX011 (ip), vehicle: saline with Tween-80, higher = larger tumour); 54 % of control (endpoint: mean tumor weight (est.), dose: 200.0 mg/kg/injection, schedule: Q01DX011 (ip), vehicle: saline with Tween-80, higher = larger tumour); 29 % of control (endpoint: mean tumor weight (est.), dose: 400.0 mg/kg/injection, schedule: Q01DX011 (ip), vehicle: saline with Tween-80, higher = larger tumour); 121 % of control (endpoint: median survival time, dose: 100.0 mg/kg/injection, schedule: Q01DX011 (ip), vehicle: saline with Tween-80, higher = longer survival); 114 % of control (endpoint: median survival time, dose: 200.0 mg/kg/injection, schedule: Q01DX011 (ip), vehicle: saline with Tween-80, higher = longer survival); 121 % of control (endpoint: median survival time, dose: 400.0 mg/kg/injection, schedule: Q01DX011 (ip), vehicle: saline with Tween-80, higher = longer survival).

Consider `COC1C(O)C(O)OC(CO)C1O` (centres undefined), for which the T/C is 83 % of control (endpoint: mean tumor weight (est.), dose: 500.0 mg/kg/injection, schedule: Q01DX011 (ip), vehicle: saline, higher = larger tumour); 77 % of control (endpoint: mean tumor weight (est.), dose: 1000.0 mg/kg/injection, schedule: Q01DX011 (ip), vehicle: saline, higher = larger tumour); 106 % of control (endpoint: median survival time, dose: 500.0 mg/kg/injection, schedule: Q01DX011 (ip), vehicle: saline, higher = longer survival); 112 % of control (endpoint: median survival time, dose: 1000.0 mg/kg/injection, schedule: Q01DX011 (ip), vehicle: saline, higher = longer survival).

Take `COC(=O)C[C@](O)(CCC(C)(C)O)C(=O)O[C@@H]1C(OC)=C[C@]23CCCN2CCc2cc4c(cc2[C@H]13)OCO4`: the T/C is 103 % of control (endpoint: mean tumor weight, dose: 0.25 mg/kg/injection, schedule: Q01DX011 (ip), vehicle: saline, higher = larger tumour); 104 % of control under setting [3]; 75 % of control (endpoint: mean tumor weight, dose: 0.5 mg/kg/injection, schedule: Q01DX011 (ip), vehicle: water, higher = larger tumour); 106 % of control (endpoint: mean tumor weight, dose: 1.0 mg/kg/injection, schedule: Q01DX011 (ip), vehicle: water, higher = larger tumour); 114 % of control (endpoint: median survival time, dose: 0.25 mg/kg/injection, schedule: Q01DX011 (ip), vehicle: saline, higher = longer survival); 114 % of control under setting [4].

For the compound `Cc1cc(/C=C/c2cc[n+](C)c3ccccc23)c(O)c2ncccc12`, the T/C by setting is: (endpoint: mean tumor weight, dose: 6.0 mg/kg/injection, schedule: Q01DX011 (ip), vehicle: saline, higher = larger tumour) 76 % of control; (endpoint: median survival time, dose: 6.0 mg/kg/injection, schedule: Q01DX011 (ip), vehicle: saline, higher = longer survival) 102 % of control.

Regarding `O=NN(CCCl)C(=O)Nc1ccc(CCCl)cc1`, the T/C is, setting by setting: (endpoint: median survival time, dose: 3.0 mg/kg/injection, schedule: Q07DX003 (ip), vehicle: Klucel (hydroxypropylcellulose) (HPC), higher = longer survival) 110 % of control; (endpoint: median survival time, dose: 5.0 mg/kg/injection, schedule: Q07DX003 (ip), vehicle: Klucel (hydroxypropylcellulose) (HPC), higher = longer survival) 116 % of control; (endpoint: median survival time, dose: 8.4 mg/kg/injection, schedule: Q07DX003 (ip), vehicle: Klucel (hydroxypropylcellulose) (HPC), higher = longer survival) 108 % of control; (endpoint: median survival time, dose: 14.0 mg/kg/injection, schedule: Q07DX003 (ip), vehicle: Klucel (hydroxypropylcellulose) (HPC), higher = longer survival) 116 % of control; (endpoint: median survival time, dose: 23.0 mg/kg/injection, schedule: Q07DX003 (ip), vehicle: Klucel (hydroxypropylcellulose) (HPC), higher = longer survival) 95 % of control.

For `CC(=O)O[C@]1(C(C)=O)CC[C@H]2[C@@H]3C[C@H](C)C4=CC(=O)CC[C@]4(C)[C@H]3CC[C@@]21C`, the T/C is, setting by setting: (endpoint: median survival time, dose: 50.0 mg/kg/injection, schedule: Q01DX009 (ip), vehicle: Klucel (hydroxypropylcellulose) (HPC), higher = longer survival) 90 % of control; (endpoint: median survival time, dose: 50.0 mg/kg/injection, schedule: Q01DX011 (ip), vehicle: Klucel (hydroxypropylcellulose) (HPC), higher = longer survival) 104 % of control and 109 % of control; (endpoint: median survival time, dose: 100.0 mg/kg/injection, schedule: Q01DX009 (ip), vehicle: Klucel (hydroxypropylcellulose) (HPC), higher = longer survival) 107 % of control; (endpoint: median survival time, dose: 100.0 mg/kg/injection, schedule: Q01DX011 (ip), vehicle: Klucel (hydroxypropylcellulose) (HPC), higher = longer survival) 104 % of control; (endpoint: median survival time, dose: 200.0 mg/kg/injection, schedule: Q01DX009 (ip), vehicle: Klucel (hydroxypropylcellulose) (HPC), higher = longer survival) 110 % of control; (endpoint: median survival time, dose: 200.0 mg/kg/injection, schedule: Q01DX011 (ip), vehicle: Klucel (hydroxypropylcellulose) (HPC), higher = longer survival) 107 % of control and 119 % of control. Moreover, the T/C is 114 % of control (endpoint: median survival time, dose: 400.0 mg/kg/injection, schedule: Q01DX009 (ip), vehicle: Klucel (hydroxypropylcellulose) (HPC), higher = longer survival); 109 % of control and 123 % of control (endpoint: median survival time, dose: 400.0 mg/kg/injection, schedule: Q01DX011 (ip), vehicle: Klucel (hydroxypropylcellulose) (HPC), higher = longer survival); 90 % of control (endpoint: median survival time, dose: 800.0 mg/kg/injection, schedule: Q01DX009 (ip), vehicle: Klucel (hydroxypropylcellulose) (HPC), higher = longer survival).

`O=C1N[C@@H]([C@H]2CC[C@H](Cl)CN2)C(=O)N[C@H]1[C@H]1CC[C@H](Cl)CN1`: the T/C is 67 % of control and 92 % of control under setting [3]; 65 % of control and 87 % of control (endpoint: mean tumor weight, dose: 1.0 mg/kg/injection, schedule: Q01DX011 (ip), vehicle: saline, higher = larger tumour); 42 % of control and 64 % of control (endpoint: mean tumor weight, dose: 2.0 mg/kg/injection, schedule: Q01DX011 (ip), vehicle: saline, higher = larger tumour); 105 % of control and 116 % of control under setting [4]; 95 % of control and 119 % of control (endpoint: median survival time, dose: 1.0 mg/kg/injection, schedule: Q01DX011 (ip), vehicle: saline, higher = longer survival).

Turning to `N#Cc1c(F)c(F)c(C#N)c(F)c1F`, the T/C by setting is: (endpoint: mean tumor weight (est.), dose: 1.25 mg/kg/injection, schedule: Q01DX011 (ip), vehicle: saline with Tween-80, higher = larger tumour) 100 % of control; (endpoint: mean tumor weight (est.), dose: 2.5 mg/kg/injection, schedule: Q01DX011 (ip), vehicle: saline with Tween-80, higher = larger tumour) 95 % of control; (endpoint: mean tumor weight (est.), dose: 5.0 mg/kg/injection, schedule: Q01DX011 (ip), vehicle: saline with Tween-80, higher = larger tumour) 101 % of control; (endpoint: mean tumor weight (est.), dose: 10.0 mg/kg/injection, schedule: Q01DX011 (ip), vehicle: saline with Tween-80, higher = larger tumour) 70 % of control; (endpoint: median survival time, dose: 1.25 mg/kg/injection, schedule: Q01DX011 (ip), vehicle: saline with Tween-80, higher = longer survival) 87 % of control; (endpoint: median survival time, dose: 10.0 mg/kg/injection, schedule: Q01DX011 (ip), vehicle: saline with Tween-80, higher = longer survival) 89 % of control.

On to `CN(N=O)C(=O)N[C@@H](C=O)[C@@H](O)[C@H](O)[C@H](O)CO`, for which the T/C is, setting by setting: (endpoint: mean tumor weight, dose: 12.5 mg/kg/injection, schedule: Q01DX011 (ip), vehicle: saline, higher = larger tumour) 66 % of control; (endpoint: mean tumor weight, dose: 25.0 mg/kg/injection, schedule: Q01DX011 (ip), vehicle: saline, higher = larger tumour) 95 % of control; (endpoint: mean tumor weight, dose: 100.0 mg/kg/injection, schedule: Q01DX011 (ip), vehicle: saline, higher = larger tumour) 61 % of control; (endpoint: mean tumor weight, dose: 200.0 mg/kg/injection, schedule: Q01DX011 (ip), vehicle: saline, higher = larger tumour) 74 % of control; (endpoint: median survival time, dose: 12.5 mg/kg/injection, schedule: Q01DX011 (ip), vehicle: saline, higher = longer survival) 109 % of control; under setting [1], 95 % of control. The T/C is 90 % of control and 100 % of control (endpoint: median survival time, dose: 50.0 mg/kg/injection, schedule: Q01DX011 (ip), vehicle: saline, higher = longer survival); 92 % of control under setting [2]; 121 % of control (endpoint: median survival time, dose: 200.0 mg/kg/injection, schedule: Q01DX011 (ip), vehicle: saline, higher = longer survival).
